How the values were obtained:
Assay type in all cases: cell-based
[1] = biological target: T1, human PPARδ (Homo sapiens, UniProt Q03181); test: Gal4-human PPARδ chimera luciferase transfection assay in COS cells; conditions: compound added at 1 μM, luciferase activity with GW501516 1 μM given as 10.0, 16 hours
T1 construct: with 137th to 441st amino acids of human PPARδ; expressed in transfected cells; host or cells: COS cells (African green monkey kidney)
T1 sequence (Q03181 137-441): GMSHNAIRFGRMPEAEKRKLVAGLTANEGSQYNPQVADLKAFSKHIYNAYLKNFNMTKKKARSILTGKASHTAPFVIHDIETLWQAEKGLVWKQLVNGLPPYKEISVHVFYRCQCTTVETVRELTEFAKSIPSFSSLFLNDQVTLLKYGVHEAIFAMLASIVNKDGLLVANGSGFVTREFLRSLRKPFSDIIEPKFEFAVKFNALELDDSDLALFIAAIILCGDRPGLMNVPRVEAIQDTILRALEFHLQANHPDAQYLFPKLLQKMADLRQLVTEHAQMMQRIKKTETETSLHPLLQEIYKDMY
Protocol: (§1) The PPAR receptor-activating effect of the compound of the present invention represented by the formula (1) was measured by a method described below (Proc. Natl. Acad. Sci., 92, pp 7297-7301, 1995; Journal of Lipid Research, 40, pp 2099-2110, 1999; and Proc. Natl. Acad. Sci, 98, pp 5306-5311, 2001).
(§2) All the transfection assays were conducted using African green monkey kidney-derived cell line COS cells. The COS cells were cultured at 5% CO2 concentration using a DMEM medium containing 10% fetal bovine serum, glutamic acid, and an antibiotic as a culture solution.
(§3) Gal4-human PPARs chimeric constructs which were fused the DNA-binding region of yeast transcription factor Gal4 with the ligand-binding region of human PPARs were used as an expression vector. A chimera where 1st to 147th amino acids of the Gal4 transcription factor were fused with 166th to 467th amino acids of human PPARα, with 182nd to 505th amino acids of human PPARγ2, or with 137th to 441st amino acids of human PPARδ was used as the chimera for each isoform. A reporter vector used was firefly luciferase whose promoter region contains five Gal4 recognition sequences. The plasmids were transfected into the cells by a method using Lipofectamine. In addition, a β-galactosidase expression vector was used as an internal standard.
(§4) After the transfection into the cells, the medium was substituted with a DMEM medium (containing 0.2% serum) supplemented with the compound, in which the cells were then cultured for additional 16 hours. Thereafter, luciferase activity and β-galactosidase activity in the cell lysate were measured.
(§5) In the present experiment, dimethyl sulfoxide (DMSO) was used in the dissolution and dilution of the compound. When the cells were treated, the DMSO concentration in the DMEM medium (containing 0.2% serum) was adjusted to 0.1%.

[2] = biological target: T2, human PPARα (Homo sapiens, UniProt Q07869); test: Gal4-human PPARα chimera luciferase transfection assay in COS cells
T2 construct: 166th to 467th amino acids of human PPARα; expressed in transfected cells; host or cells: COS cells (African green monkey kidney)
T2 sequence (Q07869 166-467): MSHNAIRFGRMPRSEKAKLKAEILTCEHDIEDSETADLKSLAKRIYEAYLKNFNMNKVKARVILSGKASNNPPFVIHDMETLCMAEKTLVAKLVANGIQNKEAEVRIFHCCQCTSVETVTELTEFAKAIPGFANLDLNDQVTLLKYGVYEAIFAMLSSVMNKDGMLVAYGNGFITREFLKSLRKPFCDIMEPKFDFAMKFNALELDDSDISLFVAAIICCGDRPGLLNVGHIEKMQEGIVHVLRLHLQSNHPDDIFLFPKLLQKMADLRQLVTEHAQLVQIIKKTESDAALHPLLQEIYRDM
Protocol: as §1, §2, §3, §4, §5

[3] = biological target: T3, human PPARγ2 (Homo sapiens, UniProt P37231); test: Gal4-human PPARγ2 chimera luciferase transfection assay in COS cells; conditions: compound added at 1 μM, luciferase activity with rosiglitazone 1 μM given as 10.0, 16 hours
T3 construct: with 182nd to 505th amino acids of human PPARγ2; expressed in transfected cells; host or cells: COS cells (African green monkey kidney)
T3 sequence (P37231 182-505): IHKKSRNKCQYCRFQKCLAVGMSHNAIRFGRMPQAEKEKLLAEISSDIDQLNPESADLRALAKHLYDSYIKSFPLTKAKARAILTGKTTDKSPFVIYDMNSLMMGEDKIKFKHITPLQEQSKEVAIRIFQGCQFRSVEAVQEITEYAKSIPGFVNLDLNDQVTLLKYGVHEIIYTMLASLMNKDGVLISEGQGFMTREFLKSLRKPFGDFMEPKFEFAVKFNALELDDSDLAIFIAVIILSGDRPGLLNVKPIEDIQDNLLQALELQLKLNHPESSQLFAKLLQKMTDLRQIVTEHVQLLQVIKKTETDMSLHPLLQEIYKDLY
Protocol: as §1, §2, §3, §4, §5

[4] = compound added at 1 μM, luciferase activity with WY14643 10 μM given as 10.0, 16 hours

Structure (SMILES)	hPPAR; Relative activity δ [1]	hPPAR; Relative activity α [2, 4]	hPPAR; Relative activity γ [3]	hPPAR; Relative activity α ([2]; positive compound at 10 μM, its luciferase activity given as 10.0, 16 hours)
CCCCN(CCCCCSc1ccccc1C(=O)O)c1nc2ccccc2o1 [Example 71, 2-[5-[N-(Benzoxazol-2-yl)-N-n-butyl]aminopentylthio]benzoic acid]	0.5	11.0	2.0	–
O=C(O)c1ccccc1SCCN(Cc1ccccc1[N+](=O)[O-])c1nc2ccccc2o1 [Example 74, 2-[2-[N-(Benzoxazol-2-yl)-N-2-nitrobenzyl]aminoethylthio]benzoic acid]	0.3	10.2	0.7	–
CCCCCCCCN(CCCCOc1ccccc1C(=O)O)c1nc2ccccc2o1 [Example 50, 2-[4-[N-(Benzoxazol-2-yl)-N-n-octyl]aminobutoxy]benzoic acid]	0.1	13.3	2.9	–
O=C(O)c1ccccc1OCCCCN(CCCOc1ccccc1)c1nc2ccccc2o1 [Example 53, 2-[4-[N-(Benzoxazol-2-yl)-N-3-phenoxypropyl]aminobutoxy]benzoic acid]	0.1	16.0	3.5	–
CCCCCCCN(CCSc1ccccc1C(=O)O)c1nc2ccccc2o1 [Example 77, 2-[2-[N-(Benzoxazol-2-yl)-N-n-heptyl]aminoethylthio]benzoic acid]	0.2	18.9	2.0	–
CCCCCCCCN(CCSc1ccccc1C(=O)O)c1nc2ccccc2o1 [Example 78, 2-[2-[N-(Benzoxazol-2-yl)-N-n-octyl]aminoethylthio]benzoic acid]	0.2	20.8	2.1	–
CCCCCCCCN(CCCOc1cccc(C(=O)O)c1)c1nc2ccccc2o1 [Example 20, 3-[3-[N-(Benzoxazol-2-yl)-N-n-octyl]aminopropoxy]benzoic acid]	0.2	21.7	1.5	–
CCCCCN(CCCCCSc1ccccc1C(=O)O)c1nc2ccccc2o1 [Example 72, 2-[5-[N-(Benzoxazol-2-yl)-N-n-pentyl]aminopentylthio]benzoic acid]	0.6	13.5	1.7	–
CCCCCCCCN(CCOc1ccccc1C(=O)O)c1nc2ccccc2o1 [Example 13, 2-[2-[N-(Benzoxazol-2-yl)-N-n-octyl]aminoethoxy]benzoic acid]	0.1	15.2	6.2	–
O=C(O)c1ccccc1SCCN(CCCc1ccccc1)c1nc2ccccc2o1 [Example 79, 2-[2-[N-(Benzoxazol-2-yl)-N-3-phenylpropyl]aminoethylthio]benzoic acid]	0.2	13.3	1.1	–
O=C(O)c1cccc(OCCCCN(CCCOc2ccccc2)c2nc3ccccc3o2)c1 [Example 48, 3-[4-[N-(Benzoxazol-2-yl)-N-3-phenoxypropyl]aminobutoxy]benzoic acid]	0.2	16.0	2.1	–
CCCCCCN(CCCCOc1ccc(C(=O)O)cc1)c1nc2ccccc2o1 [Example 60, 4-[4-[N-(Benzoxazol-2-yl)-N-n-hexyl]aminobutoxy]benzoic acid]	0.1	11.9	1.8	–
O=C(O)c1ccccc1OCCCCN(CCOc1ccccc1)c1nc2ccccc2o1 [Example 52, 2-[4-[N-(Benzoxazol-2-yl)-N-2-phenoxyethyl]aminobutoxy]benzoic acid]	0.1	13.8	2.1	–
CCCCCCCCN(CCCOc1ccccc1C(=O)O)c1nc2ccccc2o1 [Example 27, 2-[3-[N-(Benzoxazol-2-yl)-N-n-octyl]aminopropoxy]benzoic acid]	0.1	13.7	1.9	–

Second part, the molecule after the results:

hPPAR; Relative activity δ [1]	hPPAR; Relative activity α [2, 4]	hPPAR; Relative activity γ [3]	hPPAR; Relative activity α ([2]; positive compound at 10 μM, its luciferase activity given as 10.0, 16 hours)	Structure (SMILES)
0.2	16.2	1.4	–	CCN(CCCCSc1ccccc1C(=O)O)c1nc2ccccc2s1 [Example 108, 2-[4-[N-(Benzothiazol-2-yl)-N-ethyl]aminobutylthio]benzoic acid]
0.3	16.8	2.2	–	CCN(CCCCCSc1ccccc1C(=O)O)c1nc2ccccc2o1 [Example 99, 2-[5-[N-(Benzoxazol-2-yl)-N-ethyl]aminopentylthio]benzoic acid]
0.9	20.3	2.1	–	CCCCCCCCN(CCCCCSc1ccccc1C(=O)O)c1nc2ccccc2o1 [Example 102, 2-[5-[N-(Benzoxazol-2-yl)-N-n-octyl]aminopentylthio]benzoic acid]
0.2	11.6	4.6	–	O=C(O)c1ccccc1SCCCCN(CCCc1ccccc1)c1nc2ccccc2o1 [Example 97, 2-[4-[N-(Benzoxazol-2-yl)-N-3-phenylpropyl]aminobutylthio]benzoic acid]
0.2	12.4	2.0	–	CCCN(CCCCCSc1ccccc1C(=O)O)c1nc2ccccc2o1 [Example 103, 2-[5-[N-(Benzoxazol-2-yl)-N-n-propyl]aminopentylthio]benzoic acid]
–	–	–	10.0	Cc1cccc(Nc2cc(Cl)nc(SCC(=O)O)n2)c1C [WY14643, reference compound]
0.2	12.1	0.8	–	CN(CCCCSc1ccccc1C(=O)O)c1nc2ccccc2s1 [Example 109, 2-[4-[N-(Benzothiazol-2-yl)-N-methyl]aminobutylthio]benzoic acid]
0.4	12.3	4.1	–	CCCCCCN(CCCCSc1ccccc1C(=O)O)c1nc2ccccc2o1 [Example 93, 2-[4-[N-(Benzoxazol-2-yl)-N-n-hexyl]aminobutylthio]benzoic acid]
0.2	12.2	2.3	–	CCCCCCCCN(CCCCCS(=O)(=O)c1ccccc1C(=O)O)c1nc2ccccc2o1 [Example 122, 2-[5-[N-(Benzoxazol-2-yl)-N-n-octyl]aminopentylsulfonyl]benzoic acid]
0.3	16.0	4.6	–	O=C(O)c1ccccc1SCCCCN(CCOc1ccccc1)c1nc2ccccc2s1 [Example 111, 2-[4-[N-(Benzothiazol-2-yl)-N-2-phenoxyethyl]aminobutylthio]benzoic acid]

— patent US7301033B2, “PPAR-activating compound” (Kowa Co., Ltd., priority 2005, dated 2007)
